# Source: publication PMC7269146, “Jingzhaotoxin-X, a gating modifier of Kv4.2 and Kv4.3 potassium channels purified from the venom of the Chinese tarantula Chilobrachys jingzhao” (The Journal of Venomous Animals and Toxins Including …, 2020)
# “Also recorded” adds a separate entry of the source. Where a SMILES comes first, the peptide text is derived from it. Bridges are numbered along the chain shown (N, C = ends).
# Tests used:
# [1] = tested on: Nav1.7; assay: voltage-clamp, Nav1.7 currents; type: cell-based, human; conditions: 1 μM; n = 3
# From the text: (§1) Rat cDNA genes encoding Kv4.2 (Accession: NM_031730.2) and Kv4.3 (Accession: AB003587.1) were subcloned to vector pcDNA3.1. In addition, human cDNA genes encoding Nav1.7 (Accession: DQ857292.1) and Nav1.5 (Accession: AB158469.2) were subcloned to vectors pcDNA3.1-mod and pcDNA3.1, separately. Then, Kv4.2, Kv4.3, Nav1.5 and Nav1.7 constructs were transiently transfected into the human embryonic kidney 293t (HEK293t) cells using lipofectamine 2000 (Invitrogen, USA) in accordance with manufacturer protocols. Thereafter, HEK293 cells were inoculated within Dulbecco’s modified Eagle’s medium (DMEM) containing 10% fetal bovine serum (FBS) at 5% CO2 and 37°C. The Kv4.3 channel and the Kv4.2 counterpart were then transfected in the absence of β subunit. Subsequently, cells were incubated with a DNA-lipofectamine mixture (one reporter plasmid for green fluorescence protein and channel constructs) for 4-6 h, and were washed with the fresh medium.
# An EPC-10 patch-clamp amplifier (HEKA, Germany) was employed to record the potassium currents at the configuration of whole-cell patch-clamp under an ambient temperature of 22-25°C. The resistance was 2.0-3.0 MΩ when the recording pipette contained a full volume of internal solution (supplemented with 140 mM KCl, 10 mM HEPES, 2.5 mM MgCl2, 5 mM ATP and 11 mM EGTA). […]
# [2] = target: T1, Kv4.2 (Rattus norvegicus, UniProt Q63881); assay: current-voltage relationship / activation, Kv4.2; type: cell-based
# T1 construct: expressed in transfected cells; host or cells: HEK293t
# T1 sequence (Q63881 1-630): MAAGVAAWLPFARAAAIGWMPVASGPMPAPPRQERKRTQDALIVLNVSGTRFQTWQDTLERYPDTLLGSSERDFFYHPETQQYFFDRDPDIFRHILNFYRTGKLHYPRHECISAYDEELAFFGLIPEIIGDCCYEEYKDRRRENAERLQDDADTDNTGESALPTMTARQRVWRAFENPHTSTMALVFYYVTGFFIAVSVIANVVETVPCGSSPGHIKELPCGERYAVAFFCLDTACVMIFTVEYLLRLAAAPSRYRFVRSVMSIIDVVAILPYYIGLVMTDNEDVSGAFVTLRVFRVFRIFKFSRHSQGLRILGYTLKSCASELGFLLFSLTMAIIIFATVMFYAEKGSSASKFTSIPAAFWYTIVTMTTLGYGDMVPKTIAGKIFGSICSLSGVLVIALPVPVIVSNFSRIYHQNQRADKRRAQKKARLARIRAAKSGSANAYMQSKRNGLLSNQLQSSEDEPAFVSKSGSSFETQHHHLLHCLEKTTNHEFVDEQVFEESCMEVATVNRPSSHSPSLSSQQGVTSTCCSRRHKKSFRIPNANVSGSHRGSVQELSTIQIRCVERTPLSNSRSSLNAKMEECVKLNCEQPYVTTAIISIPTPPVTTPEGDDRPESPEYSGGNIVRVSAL
# From the text: as §1
# An EPC-10 patch-clamp amplifier (HEKA, Germany) was employed to record the potassium currents at the configuration of whole-cell patch-clamp under an ambient temperature of 22-25°C. The resistance was 2.0-3.0 MΩ when the recording pipette contained a full volume of internal solution (supplemented with 140 mM KCl, 10 mM HEPES, 2.5 mM MgCl2, 5 mM ATP and 11 mM EGTA). KOH was utilized to adjust the pH to 7.2, while sucrose was employed to adjust the osmolarity to 310 mOsm/L. The culture medium was replaced with an external solution containing 150 mM NaCl, 2.5 mM CaCl2, 10 mM HEPES, 2 mM MgCl2, 5 mM KCl, and 10 mM D-glucose. Similarly, sucrose and NaOH were applied to adjust the osmolarity to 330 mOsm/L and pH to 7.4. […] The series resistance was maintained at about 5 MΩ, with 65-70% compensation. Finally, the leakage currents and linear capacitance were subtracted digitally according to the P/4 protocol.
# The voltage-dependent inhibition of Kv4.2 and Kv4.3 channels by JZTX-X was determined by the depolarizing pulses to potentials in 10 mV steps from −80 to +60 mV at an interval of 10 s and the holding potential of -80 mV. […] For quantifying the voltage-depending inhibition of Kv4.2 and Kv4.3 channels, the relative current was drawn based on the membrane potential. Under control conditions, those threshold potentials to initially activate Kv4.2 and Kv4.3 currents were around -40 mV. The JZTX-X treatment at 500 nM inhibited the Kv4.2 and Kv4.3 currents, and then the I-V relation shifted to the right by about 30 mV (from -39.5 ± 1.9 mV to -11.3 ± 1.2 mV ) and 40 mV (from -39.8 ± 1.5 mV to -2.5 ± 0.9 mV ), separately (Fig. 5C and D). Additionally, the channel conductance also shifted rightward by around 30 mV (data not shown).
# Figure 5. Effects of JZTX-X on I-V relationships in Kv4.2 and Kv4.3 channels: Each cell was held at the voltage of -80 mV, and the […] current families were induced at the depolarization steps of 300 ms to different potentials (range, -80 mV to +60 mV at 10 mV increments). […] ( C ) and ( D ) represented I-V relation for Kv4.2 (C) and Kv4.3 (D) currents before (filled circles) and after 100 nM (open circles) or 500 nM (filled inverted triangles) JZTX-X treatment, respectively. ( E ) and ( F ) represented the fractional suppression on Kv4.2 (E) and Kv4.3 (F) currents after 100 nM (filled circles) and 500 nM (open circles) JZTX-X treatment, respectively. All data were expressed as mean ± S.E.M (n = 5-7 cells).
smiles,measurement,setting,value
"CC(C)C[C@@H]1NC(=O)[C@H](CCCCN)NC(=O)[C@H](Cc2ccc(O)cc2)NC(=O)[C@@H]2CSSC[C@@H]3NC(=O)[C@H](Cc4ccc(O)cc4)NC(=O)[C@H](Cc4ccccc4)NC(=O)CNC(=O)[C@H](C)NC(=O)[C@H](CSSC[C@H](NC(=O)[C@@H](N)CC(C)C)C(=O)N[C@@H](CO)C(=O)N[C@@H](CCCNC(=N)N)C(=O)N[C@@H](CCC(=O)O)C(=O)NCC(=O)N[C@@H](CCC(=O)O)C(=O)N[C@@H](Cc4ccccc4)C(=O)N2)NC(=O)[C@H](CSSC[C@@H](C(=O)N[C@@H](Cc2ccc(O)cc2)C(=O)N[C@@H](CCCNC(=N)N)C(=O)N[C@@H](CC(N)=O)C(=O)O)NC(=O)[C@H](Cc2c[nH]cn2)NC(=O)[C@H](CC(C)C)NC(=O)[C@H](C(C)C)NC(=O)[C@H](Cc2ccccc2)NC(=O)[C@H](C)NC(=O)[C@H](CCCCN)NC3=O)NC(=O)[C@H](CCCCN)NC(=O)[C@H](CCCNC(=N)N)NC1=O [JZTX-X, Jingzhaotoxin-X] (H-LCSREGEFCYKLRKCCAGFYCKAFVLHCYRN-OH; disulfide 2-16, 9-21, 15-28; N-terminus assumed)",effect on Nav1.7 channel,[1],negligible effect; also recorded: did not affect the currents
same,reduction of Kv4.2 currents over voltage range,"[2]; 100 nM, -80 to +60 mV in 10 mV steps",reduced the currents of Kv4.2 channels throughout the whole voltage range
same,"I-V relation potential after toxin, Kv4.2","[2]; 500 nM, control -39.5 ± 1.9 mV, holding -80 mV, n = 5-7 cells",-11.3 ± 1.2 mV
same,"rightward shift of I-V relation, Kv4.2","[2]; 500 nM, holding -80 mV",about 30 mV
same,"rightward shift of channel conductance, Kv4.2","[2]; data not shown, channel not named separately",about 30 mV
same,voltage dependence of Kv4.2 inhibition,"[2]; test potentials -10 to +60 mV, 100 nM and 500 nM",dependent on voltage
